Assay results taken from ChEMBL document CHEMBL1138676, “Liver-selective glucocorticoid antagonists: a novel treatment for type 2 diabetes” (J Med Chem, 2004).

Legend:
[1] = target: T1, Estrogen receptor (Homo sapiens, UniProt P03372); assay: Inhibition of human Estrogen receptor alpha
T1 sequence (P03372 whole entry): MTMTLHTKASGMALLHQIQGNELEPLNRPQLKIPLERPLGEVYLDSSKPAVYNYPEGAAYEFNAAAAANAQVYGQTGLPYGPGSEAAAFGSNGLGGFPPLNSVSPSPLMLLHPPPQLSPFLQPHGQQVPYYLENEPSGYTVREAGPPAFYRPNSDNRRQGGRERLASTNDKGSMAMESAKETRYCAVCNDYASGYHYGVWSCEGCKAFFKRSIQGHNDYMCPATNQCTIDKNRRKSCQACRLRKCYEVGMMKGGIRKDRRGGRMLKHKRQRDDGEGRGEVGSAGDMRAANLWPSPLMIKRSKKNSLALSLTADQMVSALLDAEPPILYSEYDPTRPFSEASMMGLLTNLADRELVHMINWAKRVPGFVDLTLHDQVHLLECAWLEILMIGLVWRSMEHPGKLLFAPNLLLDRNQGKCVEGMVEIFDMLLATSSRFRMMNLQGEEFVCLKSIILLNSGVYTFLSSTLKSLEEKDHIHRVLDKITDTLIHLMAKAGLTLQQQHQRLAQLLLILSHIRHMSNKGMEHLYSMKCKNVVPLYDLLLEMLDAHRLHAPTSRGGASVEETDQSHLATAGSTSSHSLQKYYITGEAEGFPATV

[2] = target: T2, Glucocorticoid receptor (Homo sapiens, UniProt P04150); assay: Inhibition of human glucocorticoid receptor
T2 sequence (P04150 whole entry): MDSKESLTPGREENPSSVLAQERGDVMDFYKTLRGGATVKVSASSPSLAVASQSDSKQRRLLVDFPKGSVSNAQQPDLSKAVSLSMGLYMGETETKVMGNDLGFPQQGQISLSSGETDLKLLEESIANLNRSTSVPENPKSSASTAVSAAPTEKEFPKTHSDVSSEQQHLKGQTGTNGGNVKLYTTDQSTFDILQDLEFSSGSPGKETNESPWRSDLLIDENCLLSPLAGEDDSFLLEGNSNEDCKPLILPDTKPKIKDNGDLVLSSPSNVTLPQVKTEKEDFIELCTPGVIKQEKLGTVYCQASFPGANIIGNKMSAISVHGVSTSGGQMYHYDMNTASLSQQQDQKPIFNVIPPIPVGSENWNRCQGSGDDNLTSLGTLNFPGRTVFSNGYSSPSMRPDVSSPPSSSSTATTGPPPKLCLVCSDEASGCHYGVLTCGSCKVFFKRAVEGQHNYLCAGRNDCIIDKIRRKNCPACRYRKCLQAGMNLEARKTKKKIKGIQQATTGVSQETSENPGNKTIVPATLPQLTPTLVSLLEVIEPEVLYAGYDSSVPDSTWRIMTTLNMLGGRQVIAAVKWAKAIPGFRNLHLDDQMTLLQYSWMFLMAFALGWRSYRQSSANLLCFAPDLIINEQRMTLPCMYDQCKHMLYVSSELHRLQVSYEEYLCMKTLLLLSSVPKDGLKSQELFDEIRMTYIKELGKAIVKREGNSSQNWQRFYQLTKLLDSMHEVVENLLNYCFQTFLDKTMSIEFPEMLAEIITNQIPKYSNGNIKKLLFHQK

[3] = target: T3, Mineralocorticoid receptor (Homo sapiens, UniProt P08235)
T3 sequence (P08235 whole entry): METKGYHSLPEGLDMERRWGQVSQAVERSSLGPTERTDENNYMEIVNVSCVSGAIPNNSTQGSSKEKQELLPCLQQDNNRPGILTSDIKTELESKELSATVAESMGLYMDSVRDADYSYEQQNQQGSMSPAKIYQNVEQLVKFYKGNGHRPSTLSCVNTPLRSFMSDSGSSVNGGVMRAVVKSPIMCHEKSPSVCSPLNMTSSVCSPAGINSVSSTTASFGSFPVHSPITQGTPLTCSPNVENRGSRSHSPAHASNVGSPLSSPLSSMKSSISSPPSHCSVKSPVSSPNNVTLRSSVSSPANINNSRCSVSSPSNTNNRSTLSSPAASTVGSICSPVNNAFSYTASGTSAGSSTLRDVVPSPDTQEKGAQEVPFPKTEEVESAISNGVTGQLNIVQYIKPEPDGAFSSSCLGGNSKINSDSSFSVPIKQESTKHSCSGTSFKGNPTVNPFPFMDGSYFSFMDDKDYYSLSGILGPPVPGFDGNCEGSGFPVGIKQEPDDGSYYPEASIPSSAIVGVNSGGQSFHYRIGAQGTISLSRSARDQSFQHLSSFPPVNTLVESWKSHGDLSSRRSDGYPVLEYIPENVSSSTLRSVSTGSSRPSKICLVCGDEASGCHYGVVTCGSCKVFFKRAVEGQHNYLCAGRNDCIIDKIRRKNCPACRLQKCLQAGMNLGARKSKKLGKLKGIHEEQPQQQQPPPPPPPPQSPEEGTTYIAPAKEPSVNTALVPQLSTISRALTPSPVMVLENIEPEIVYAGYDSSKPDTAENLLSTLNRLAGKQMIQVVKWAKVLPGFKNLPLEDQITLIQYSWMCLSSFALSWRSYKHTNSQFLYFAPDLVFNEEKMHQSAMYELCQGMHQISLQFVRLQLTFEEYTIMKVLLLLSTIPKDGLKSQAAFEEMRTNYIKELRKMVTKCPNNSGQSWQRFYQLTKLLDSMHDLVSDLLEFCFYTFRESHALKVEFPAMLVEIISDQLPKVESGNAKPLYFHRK
Description: Inhibition of human Mineralocorticoid receptor

[4] = target: Estrogen receptor beta (Homo sapiens, UniProt Q92731); assay: Inhibition of human Estrogen receptor beta
[5] = target: T4, Thyroid hormone receptor alpha (Homo sapiens, UniProt P10827); assay: Inhibition of human Thyroid hormone receptor alpha
T4 sequence (P10827 whole entry): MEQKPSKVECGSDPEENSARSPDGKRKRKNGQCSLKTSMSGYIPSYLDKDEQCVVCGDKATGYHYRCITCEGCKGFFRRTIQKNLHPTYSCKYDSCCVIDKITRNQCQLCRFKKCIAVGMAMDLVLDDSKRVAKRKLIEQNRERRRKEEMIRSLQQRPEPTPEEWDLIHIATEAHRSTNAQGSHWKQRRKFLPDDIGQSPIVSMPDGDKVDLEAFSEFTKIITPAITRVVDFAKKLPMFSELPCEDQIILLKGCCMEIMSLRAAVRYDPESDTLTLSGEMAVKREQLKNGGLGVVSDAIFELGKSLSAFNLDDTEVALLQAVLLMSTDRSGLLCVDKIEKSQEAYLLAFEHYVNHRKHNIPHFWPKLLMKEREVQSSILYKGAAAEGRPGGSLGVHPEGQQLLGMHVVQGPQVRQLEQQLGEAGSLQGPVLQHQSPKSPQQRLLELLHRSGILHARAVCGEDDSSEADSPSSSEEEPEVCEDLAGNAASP

Estrogen receptor beta, sequence (Q92731 whole entry): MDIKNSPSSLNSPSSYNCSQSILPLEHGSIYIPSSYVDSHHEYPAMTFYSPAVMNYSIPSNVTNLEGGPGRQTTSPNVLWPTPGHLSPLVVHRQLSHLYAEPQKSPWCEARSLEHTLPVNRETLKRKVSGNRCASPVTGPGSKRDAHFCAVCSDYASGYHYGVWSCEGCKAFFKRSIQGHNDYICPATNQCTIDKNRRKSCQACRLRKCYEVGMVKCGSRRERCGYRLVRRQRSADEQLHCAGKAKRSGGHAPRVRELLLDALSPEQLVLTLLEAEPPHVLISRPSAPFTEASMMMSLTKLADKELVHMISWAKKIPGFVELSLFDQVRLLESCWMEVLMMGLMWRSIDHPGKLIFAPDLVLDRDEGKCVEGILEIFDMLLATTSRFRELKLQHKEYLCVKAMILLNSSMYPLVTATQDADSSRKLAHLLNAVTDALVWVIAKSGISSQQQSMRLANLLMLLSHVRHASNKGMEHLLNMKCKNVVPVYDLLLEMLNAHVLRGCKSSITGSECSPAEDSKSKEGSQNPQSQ

Ki [1]: 72 nM
Ki [2]: 3 nM
Ki [3]: 590 nM
Ki [4]: 240 nM
Ki [5]: 1200 nM
Compound: C#C[C@]1(O)CC[C@H]2[C@@H]3CCC4=CC(=O)CCC4=C3[C@@H](c3ccc(N(C)C(=O)CC[C@H](NC(=O)CC[C@@H](C)[C@H]4CC[C@H]5[C@@H]6[C@H](O)C[C@@H]7C[C@H](O)CC[C@]7(C)[C@H]6C[C@H](O)[C@]45C)C(=O)O)cc3)C[C@@]21C
